From ChEMBL document CHEMBL1201861, “Genomics of Drug Sensitity in Cancer screening data, Wellcome Trust Sanger Institute”

What was measured:
Assay in all cases: cells
CP50-MEL-B = assay type: functional, cell-based, Homo sapiens; settings: Homo sapiens, CP50-MEL-B;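 also: growth inhibition of the human cell line, measured with a cell viability read-out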
Description: SANGER: Inhibition of human CP50-MEL-B cell growth in a cell viability assay.

Calu-6 = assay type: functional, cell-based, Homo sapiens; settings: Homo sapiens, Calu-6;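 also: growth of human Calu-6 cells, read out by a cell viability assay, IC50 marking inhibition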
Description: SANGER: Inhibition of human Calu-6 cell growth in a cell viability assay.

FTC-133 = assay type: functional, cell-based, Homo sapiens; settings: Homo sapiens, FTC-133
HPAF-II = assay type: functional, cell-based, Homo sapiens; settings: Homo sapiens, HPAF-II;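 also: growth inhibition of HPAF-II cells, read out with a cell viability assay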
Description: SANGER: Inhibition of human HPAF-II cell growth in a cell viability assay.

HSC-2 = assay type: functional, cell-based, Homo sapiens; settings: Homo sapiens, HSC-2;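 also: growth inhibition of human HSC-2 cells, read out by a cell viability assay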
Description: SANGER: Inhibition of human HSC-2 cell growth in a cell viability assay.

HT = assay type: functional, cell-based; settings: Homo sapiens
Description: SANGER: Inhibition of human HT cell growth in a cell viability assay.

HT-144 = assay type: functional, cell-based, Homo sapiens; settings: Homo sapiens, HT-144
Description: SANGER: Inhibition of human HT-144 cell growth in a cell viability assay.

J-RT3-T3-5 = assay type: functional, cell-based; settings: Homo sapiens;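 also: cell viability assay measuring growth inhibition of human J-RT3-T3-5 cells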
Description: SANGER: Inhibition of human J-RT3-T3-5 cell growth in a cell viability assay.

JEG-3 = assay type: functional, cell-based, Homo sapiens; settings: Homo sapiens, JEG-3;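 also: growth inhibition of human JEG-3 cells, read out with a cell viability assay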
Description: SANGER: Inhibition of human JEG-3 cell growth in a cell viability assay.

KYSE-180 = assay type: functional, cell-based, Homo sapiens; settings: Homo sapiens, KYSE-180;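 also: growth inhibition of KYSE-180 cells, read out with a cell viability assay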
Description: SANGER: Inhibition of human KYSE-180 cell growth in a cell viability assay.

LCLC-97TM1 = assay type: functional, cell-based, Homo sapiens; settings: Homo sapiens, LCLC-97TM1;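 also: cell viability assay measuring growth inhibition of human LCLC-97TM1 cells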
Description: SANGER: Inhibition of human LCLC-97TM1 cell growth in a cell viability assay.

LXF-289 cell line = assay type: functional, cell-based, Homo sapiens; settings: Homo sapiens, LXF-289
Description: SANGER: Inhibition of human LXF-289 cell growth in a cell viability assay.

ME-180 = assay type: functional, cell-based; settings: Homo sapiens;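 also: cell viability assay measuring growth inhibition of ME-180 cells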
Description: SANGER: Inhibition of human ME-180 cell growth in a cell viability assay.

MFE-280 = assay type: functional, cell-based, Homo sapiens; settings: Homo sapiens, MFE-280;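 also: growth inhibition of MFE-280 cells, determined with a cell viability readout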
Description: SANGER: Inhibition of human MFE-280 cell growth in a cell viability assay.

MHH-NB-11 = assay type: functional, cell-based, Homo sapiens; settings: Homo sapiens, MHH-NB-11;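 also: growth inhibition of human MHH-NB-11 cells, read out by a cell viability assay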
Description: SANGER: Inhibition of human MHH-NB-11 cell growth in a cell viability assay.

MOLT-16 = assay type: functional, cell-based; settings: Homo sapiens;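 also: growth inhibition of human MOLT-16 cells, read out with a cell viability assay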
Description: SANGER: Inhibition of human MOLT-16 cell growth in a cell viability assay.

MPP-89 = assay type: functional, cell-based, Homo sapiens; settings: Homo sapiens, MPP-89;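 also: growth inhibition of human MPP-89 cells, read out with a cell viability assay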
Description: SANGER: Inhibition of human MPP-89 cell growth in a cell viability assay.

MS-1 = assay type: functional, cell-based; settings: Homo sapiens;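 also: growth inhibition of MS-1 cells, read out by cell viability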
Description: SANGER: Inhibition of human MS-1 cell growth in a cell viability assay.

MSTO-211H = assay type: functional, cell-based, Homo sapiens; settings: Homo sapiens, MSTO-211H
Description: SANGER: Inhibition of human MSTO-211H cell growth in a cell viability assay.

MZ2-MEL = assay type: functional, cell-based, Homo sapiens; settings: Homo sapiens, MZ2-MEL;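 also: growth inhibition of MZ2-MEL cells read out with a cell viability assay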
Description: SANGER: Inhibition of human MZ2-MEL cell growth in a cell viability assay.

NCI-H1092 = assay type: functional, cell-based; settings: Homo sapiens;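 also: cell growth inhibition measured with a cell viability assay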
Description: SANGER: Inhibition of human NCI-H1092 cell growth in a cell viability assay.

NCI-H1355 = assay type: functional, cell-based, Homo sapiens; settings: Homo sapiens, NCI-H1355;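 also: growth inhibition of human NCI-H1355 cells, read out by a cell viability assay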
Description: SANGER: Inhibition of human NCI-H1355 cell growth in a cell viability assay.

NCI-H1838 = assay type: functional, cell-based, Homo sapiens; settings: Homo sapiens, NCI-H1838;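 also: growth inhibition of NCI-H1838 cells, determined with a cell viability readout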
Description: SANGER: Inhibition of human NCI-H1838 cell growth in a cell viability assay.

NCI-H2170 = assay type: functional, cell-based, Homo sapiens; settings: Homo sapiens, NCI-H2170;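 also: cell viability assay measuring growth inhibition of human NCI-H2170 cancer cells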
Description: SANGER: Inhibition of human NCI-H2170 cell growth in a cell viability assay.

NCI-H650 = assay type: functional, cell-based, Homo sapiens; settings: Homo sapiens, NCI-H650;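 also: growth inhibition of NCI-H650 cells, read out by a viability assay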
Description: SANGER: Inhibition of human NCI-H650 cell growth in a cell viability assay.

NKM-1 = assay type: functional, cell-based; settings: Homo sapiens;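 also: growth inhibition of NKM-1 cells, read out with a cell viability assay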
Description: SANGER: Inhibition of human NKM-1 cell growth in a cell viability assay.

NOMO-1 = assay type: functional, cell-based; settings: Homo sapiens;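 also: growth inhibition of human NOMO-1 cells measured by a cell viability assay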
Description: SANGER: Inhibition of human NOMO-1 cell growth in a cell viability assay.

NUGC-3 = assay type: functional, cell-based, Homo sapiens; settings: Homo sapiens, NUGC-3;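 also: growth inhibition of human NUGC-3 cells, read out with a cell viability assay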
Description: SANGER: Inhibition of human NUGC-3 cell growth in a cell viability assay.

OVCAR-5 = assay type: functional, cell-based, Homo sapiens; settings: Homo sapiens, OVCAR-5;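 also: growth inhibition of human OVCAR-5 cells, read out with a cell viability assay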
Description: SANGER: Inhibition of human OVCAR-5 cell growth in a cell viability assay.

RPMI-8866 = assay type: functional, cell-based; settings: Homo sapiens
Description: SANGER: Inhibition of human RPMI-8866 cell growth in a cell viability assay.

SCC-15 = assay type: functional, cell-based, Homo sapiens; settings: Homo sapiens, SCC-15;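 also: growth inhibition of SCC-15 cells, read out with a cell viability assay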
Description: SANGER: Inhibition of human SCC-15 cell growth in a cell viability assay.

SCH = assay type: functional, cell-based, Homo sapiens; settings: Homo sapiens, SCH;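 also: growth inhibition of human SCH cells, read out in a cell viability assay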
Description: SANGER: Inhibition of human SCH cell growth in a cell viability assay.

SF-539 = assay type: functional, cell-based, Homo sapiens; settings: Homo sapiens, SF-539;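 also: Read-out is a cell viability assay, with IC50 reflecting inhibition of cell growth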
Description: SANGER: Inhibition of human SF539 cell growth in a cell viability assay.

SK-UT-1 = assay type: functional, cell-based, Homo sapiens; settings: Homo sapiens, SK-UT-1;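 also: growth inhibition of SK-UT-1 cells, measured by a cell viability assay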
Description: SANGER: Inhibition of human SK-UT-1 cell growth in a cell viability assay.

SW1088 = assay type: functional, cell-based, Homo sapiens; settings: Homo sapiens, SW1088;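 also: growth inhibition of human SW1088 cells, read out by a cell viability assay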
Description: SANGER: Inhibition of human SW1088 cell growth in a cell viability assay.

SW684 = assay type: functional, cell-based, Homo sapiens; settings: Homo sapiens, SW684;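 also: growth inhibition of human SW684 cells, measured by a cell viability assay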
Description: SANGER: Inhibition of human SW684 cell growth in a cell viability assay.

SAOS-2 = assay type: functional, cell-based, Homo sapiens; settings: Homo sapiens, SAOS-2;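 also: growth inhibition of human Saos-2 cells determined by a cell viability assay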
Description: SANGER: Inhibition of human Saos-2 cell growth in a cell viability assay.

TCC-SUP = assay type: functional, cell-based, Homo sapiens; settings: Homo sapiens, TCC-SUP;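 also: growth inhibition of TCC-SUP cells, read out with a cell viability assay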
Description: SANGER: Inhibition of human TCCSUP cell growth in a cell viability assay.

769-P = assay type: functional, cell-based, Homo sapiens; settings: Homo sapiens, 769-P
Description: SANGER: Inhibition of human 769-P cell growth in a cell viability assay.

A253 cell line = assay type: functional, cell-based, Homo sapiens; settings: Homo sapiens, A253;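 also: growth inhibition of A253 cells, read out with a cell viability assay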
Description: SANGER: Inhibition of human A253 cell growth in a cell viability assay.

BPH-1 = assay type: functional, cell-based, Homo sapiens; settings: Homo sapiens, BPH-1;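 also: cell viability assay measuring growth inhibition of human BPH-1 cells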
Description: SANGER: Inhibition of human BPH-1 cell growth in a cell viability assay.

BT-20 = assay type: functional, cell-based, Homo sapiens; settings: Homo sapiens, BT-20;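 also: cell viability assay measuring suppression of growth in human BT-20 cells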
Description: SANGER: Inhibition of human BT-20 cell growth in a cell viability assay.

BXPC-3 = assay type: functional, cell-based, Homo sapiens; settings: Homo sapiens, BXPC-3;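 also: growth inhibition of human BxPC-3 cells, read out by a cell viability assay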
Description: SANGER: Inhibition of human BxPC-3 cell growth in a cell viability assay.

CAL-54 = assay type: functional, cell-based, Homo sapiens; settings: Homo sapiens, CAL-54;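 also: growth inhibition of CAL-54 cells, read out by a viability measurement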
Description: SANGER: Inhibition of human CAL-54 cell growth in a cell viability assay.

TE-5 = assay type: functional, cell-based, Homo sapiens; settings: Homo sapiens, TE-5;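 also: inhibition of cell growth, read out by a cell viability assay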
Description: SANGER: Inhibition of human TE-5 cell growth in a cell viability assay.

TE-6 = assay type: functional, cell-based, Homo sapiens; settings: Homo sapiens, TE-6;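 also: growth inhibition of TE-6 cells, read out with a cell viability assay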
Description: SANGER: Inhibition of human TE-6 cell growth in a cell viability assay.

TGBC1TKB = assay type: functional, cell-based, Homo sapiens; settings: Homo sapiens, TGBC1TKB;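 also: growth inhibition of TGBC1TKB cells, read out by a cell viability assay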
Description: SANGER: Inhibition of human TGBC1TKB cell growth in a cell viability assay.

U-251 = assay type: functional, cell-based, Homo sapiens; settings: Homo sapiens, U-251;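 also: growth inhibition of human U-251 cells, read out through a cell viability assay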
Description: SANGER: Inhibition of human U251 cell growth in a cell viability assay.

VMRC-RCZ = assay type: functional, cell-based; settings: Homo sapiens;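 also: growth inhibition measured with a cell viability assay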
Description: SANGER: Inhibition of human VMRC-RCZ cell growth in a cell viability assay.

YAPC = assay type: functional, cell-based, Homo sapiens; settings: Homo sapiens, YAPC;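 also: growth inhibition of YAPC cells, measured with a cell viability assay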
Description: SANGER: Inhibition of human YAPC cell growth in a cell viability assay.

CAPAN-1 = assay type: functional, cell-based, Homo sapiens; settings: Homo sapiens, CAPAN-1;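 also: growth suppression of CAPAN-1 cells, read out by a cell viability assay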
Description: SANGER: Inhibition of human CAPAN-1 cell growth in a cell viability assay.

Measured: IC50

O=c1cc(-c2cccc3c2Sc2ccccc2S3)oc(N2CCOCC2)c1 [KU-55933]
> 10000 nM: all assays above

Cc1cnc(-c2cnc(NCCNc3ccc(C#N)cn3)nc2-c2ccc(Cl)cc2Cl)[nH]1 [LADUVIGLUSIB]
1730 nM: KYSE-180
585 nM: 769-P
> 2560 nM: all other assays above
